The target of the test is Recombinant human LSD1 (Homo sapiens, UniProt O60341). Kind of test: LSD1 inhibition assay (HTRF LSD1 Histone H3K4 mono-demethylation assay, me1->me0). The format is biochemical. Particulars: 20 nM recombinant human LSD1, 95 nM H3K4(me1) biotinylated peptide, 15 min preincubation, 60 min at 25° C., read-out: LSD1 inhibition IC50 (nM range). As to the method:
LSD1 biochemical activity was measured using the HTRF® LSD1 Histone H3K4 mono-demethylation assay (me1->me0). Briefly, the enzymatic buffer was prepared by addition of 50 mM Tris-HCl (Sigma cat #T2663-IL), 50 mM NaCl (ThermoFisher cat #AM9759) and 0.01% Tween 20 (ThermoFisher cat #J20605.AP) in distilled water (final pH 8.5). This buffer was supplemented with 10 μM FAD (Fisher Scientific cat #11411838) and 1 mM DTT (Sigma cat #D0632). For the assay, H3K4(me1) biotinylated peptide substrate (Anaspec, cat #64355) was added to provide a final assay concentration of 95 nM. The streptavidin-XL665 (Cisbio cat #610SAXLA) and H3K4 me0-Eu(K) antibody-cryptate (Cisbio, cat #61 KAOKAD) detection reagents were mixed according to the manufacturer's instructions. Test compounds were diluted in DMSO in a series of 10 semi-log step doses; 10 nL of each compound dose were dispensed in 384 well plates. Recombinant human LSD1 was diluted into enzymatic buffer to provide a final assay concentration of 20 nM and added to the tested compounds for 15 minutes. The reaction was started by addition of the substrate and incubated at 25° C. for 60 minutes. The detection reagents were added, and the plate was incubated in the dark for 90 minutes. Fluorescence was measured on an Envision 2103 plate reader with optical setup for […] in the HTRF mode. The ratio of acceptor and donor emission signals was calculated for each well. Percent inhibition values were calculated from the HTRF ratios at different doses and fitted to a 4-parameter logistic curve to determine IC50 values. […]

Consider `N#Cc1ccc(-c2cc(CN3[C@@H]4CC[C@H]3[C@@H](N)C4)ccc2OC2CCC2)cc1F` (racemic) [Example 312, 5'-{[(1S,2S,4R)-2-amino-7-azabicyclo[2.2.1]heptan-7-yl]methyl}-2'-cyclobutoxy-3-fluoro-[1,1'-biphenyl]-4-carbonitrile], for which the IC50 lay in the range of 10 to 25 nM. To `N#Cc1ccc(-c2cc(CN3[C@@H]4CC[C@H]3[C@@H](N)C4)ccc2N2CCC(CF)CC2)cc1F` (racemic) [Example 235, 5'-{[(1S,2S,4R)-2-amino-7-azabicyclo[2.2.1]heptan-7-yl]methyl}-3-fluoro-2'-[4-(fluoromethyl)piperidin-1-yl]-[1,1'-biphenyl]-4-carbonitrile] belongs 10 to 25 nM. To `N#Cc1ccc(-c2cccc(CN3[C@@H]4CC[C@H]3[C@@H](N)C4)c2-c2ccns2)cc1` (single isomer, unassigned) [Example 204] belongs 10 to 25 nM. To `CN1CCC2CN(Cc3cccc(-c4ccc(C#N)c(F)c4)c3C3CC3)CC21` (stereo not drawn) [Example 276, 2'-cyclopropyl-3-fluoro-3'-({1-methyl-octahydropyrrolo[2,3-c]pyrrol-5-yl}methyl)-[1,1'-biphenyl]-4-carbonitrile] belongs 100 to 1000 nM.

For the compound `C[C@@H]1[C@@H](N)CCCN1Cc1cccc(-c2ccc(C#N)c(F)c2)c1Cl` [Example 329, 3'-{[(2R,3S)-3-amino-2-methylpiperidin-1-yl]methyl}-2'-chloro-3-fluoro-[1,1'-biphenyl]-4-carbonitrile], the IC50 was over 1000 nM. Under `CC(C)C1(O)CN(c2ccc(CC3CNCCO3)cc2-c2ccc(C#N)c(F)c2)C1` (stereo not drawn) [Example 122, 3-fluoro-2′-[3-hydroxy-3-(propan-2-yl)azetidin-1-yl]-5′-[(morpholin-2-yl)methyl]-[1,1′-biphenyl]-4-carbonitrile] stands 100 to 1000 nM; under `N#Cc1ccc(-c2cc(CC3CNCCO3)ccc2-c2ccn3cnnc3c2)cc1F` (stereo not drawn) [Example 157, 3-fluoro-5′-[(morpholin-2-yl)methyl]-2′-{[1,2,4]triazolo[4,3-a]pyridin-7-yl}-[1,1′-biphenyl]-4-carbonitrile], over 1000 nM. Under `N#Cc1ccc(-c2cccc(CN3C[C@H]4C[C@@H]3CCN4)c2C2CC2)cc1F` [Example 322, 2'-cyclopropyl-3'-{[(1R,5S)-2,6-diazabicyclo[3.2.1]octan-6-yl]methyl}-3-fluoro-[1,1'-biphenyl]-4-carbonitrile] stands 25 to 100 nM; under `N#Cc1ccc(-c2cc(CN3[C@@H]4CC[C@H]3[C@@H](N)C4)ccc2N2CCCCC2)cc1F` (racemic) [Example 255, 5'-{[(1S,2S,4R)-2-amino-7-azabicyclo[2.2.1]heptan-7-yl]methyl}-3-fluoro-2'-(piperidin-1-yl)-[1,1'-biphenyl]-4-carbonitrile], 10 to 25 nM; under `N#Cc1ccc(-c2cccc(CN3[C@@H]4CC[C@H]3[C@@H](N)C4)c2N2CCC2)cc1F` (racemic) [Example 203, 3'-{[(1S,2S,4R)-2-amino-7-azabicyclo[2.2.1]heptan-7-yl]methyl}-2'-(azetidin-1-yl)-3-fluoro-[1,1'-biphenyl]-4-carbonitrile], 25 to 100 nM. Under `N#Cc1ccc(-c2cc(CC3CNCCO3)ccc2N2CCCC2)cc1F` (stereo not drawn) [Example 147, 3-fluoro-5′-[(morpholin-2-yl)methyl]-2′-(pyrrolidin-1-yl)-[1,1′-biphenyl]-4-carbonitrile] stands 100 to 1000 nM; under `N#Cc1ccc(-c2cccc(CN3C[C@]4(N)CC[C@H]3C4)c2C2CC2)cc1` [Example 184, 3'-{[(1S,4S)-4-amino-2-azabicyclo[2.2.1]heptan-2-yl]methyl}-2'-cyclopropyl-[1,1'-biphenyl]-4-carbonitrile], 25 to 100 nM. For the compound `N#Cc1ccc(-c2cccc(CN3C[C@H]4C[C@@H](N)C[C@@H]3C4)c2C2CC2)cc1F` (stereo in doubt) [Example 318, 3'-{[(1S,3R,5S)-3-amino-6-azabicyclo[3.2.1]octan-6-yl]methyl}-2'-cyclopropyl-3-fluoro-[1,1'-biphenyl]-4-carbonitrile], the IC50 was in the range of 25 to 100 nM. For `N#Cc1ccc(-c2cccc(CN3[C@@H]4CC[C@H]3[C@@H](N)C4)c2-c2cccs2)cc1F` (racemic) [Example 243, 3'-{[(1S,2S,4R)-2-amino-7-azabicyclo[2.2.1]heptan-7-yl]methyl}-3-fluoro-2'-(thiophen-2-yl)-[1,1'-biphenyl]-4-carbonitrile], the IC50 is 25 to 100 nM. Under `Cn1nccc1-c1c(CC2CNCCO2)cccc1-c1ccc(C#N)c(F)c1` (stereo not drawn) [Example 156, 3-fluoro-2′-(1-methyl-1H-pyrazol-5-yl)-3′-[(morpholin-2-yl)methyl]-[1,1′-biphenyl]-4-carbonitrile] stands 25 to 100 nM. Under `CNC1CCN(c2cccc(-c3ccc(C#N)c(F)c3)c2C2CC2)CC1` [Example 125, 2'-cyclopropyl-3-fluoro-3'-[4-(methylamino)piperidin-1-yl]-[1,1'-biphenyl]-4-carbonitrile] stands 100 to 1000 nM; under `COCC1(O)CCN(c2ccc(CC3CNCCO3)cc2-c2ccc(C#N)c(F)c2)CC1` (stereo not drawn) [Example 126, COCC1(O)CCN(CC1)c2ccc(CC3CNCCO3)cc2c4ccc(C#N)c(F)c4], 100 to 1000 nM.

For `N#Cc1ccc(-c2cccc(CC3CCOCC3)c2-c2ccns2)cc1F` [Example 111, 3-fluoro-3′-[(oxan-4-yl)methyl]-2′-(1,2-thiazol-5-yl)-[1,1′-biphenyl]-4-carbonitrile], the IC50 was in the range of 25 to 100 nM. For the compound `N#Cc1ccc(-c2cccc(CC3CNCCO3)c2C2=CCCC2)cc1F` (stereo not drawn) [Example 64, 2′-(cyclopent-1-en-1-yl)-3-fluoro-3′-[(morpholin-2-yl)methyl]-[1,1′-biphenyl]-4-carbonitrile], the IC50 lay in the range of 25 to 100 nM.

In the case of `Cc1cc(CN2[C@@H]3CC[C@H]2[C@@H](N)C3)c(C2CC2)c(-c2ccc(C#N)c(F)c2)c1` (racemic) [Example 304, 3'-{[(1S,2S,4R)-2-amino-7-azabicyclo[2.2.1]heptan-7-yl]methyl}-2'-cyclopropyl-3-fluoro-5'-methyl-[1,1'-biphenyl]-4-carbonitrile], the half-maximal inhibitory concentration (IC50) was in the range of 10 to 25 nM.

Take `N#Cc1ccc(-c2cc(CC3CNCCO3)ccc2N2CCN(CC(F)F)CC2)cc1F` (stereo not drawn) [Example 105, 2′-[4-(2,2-difluoroethyl)piperazin-1-yl]-3-fluoro-5′-[(morpholin-2-yl)methyl]-[1,1′-biphenyl]-4-carbonitrile]: the IC50 was 100 to 1000 nM. Under `CC(C)N1CCOC(Cc2ccc(N3CCC3)c(-c3ccc(C#N)c(F)c3)c2)C1` (stereo not drawn) [Example 163, 2′-(azetidin-1-yl)-3-fluoro-5′-{[4-(propan-2-yl)morpholin-2-yl]methyl}-[1,1′-biphenyl]-4-carbonitrile] stands 100 to 1000 nM.

Regarding `N#Cc1ccc(-c2cc(CC3CNCCO3)ccc2-c2ccc(N3CCCC3)nc2)cc1F` (stereo not drawn) [Example 93, 3-fluoro-5′-[(morpholin-2-yl)methyl]-2′-[6-(pyrrolidin-1-yl)pyridin-3-yl]-[1,1′-biphenyl]-4-carbonitrile], the IC50 lay in the range of 25 to 100 nM. With `CN1CCC(O)(Cc2cccc(-c3ccc(C#N)c(F)c3)c2C2CC2)CC1` [Example 166, 2′-cyclopropyl-3-fluoro-3′-[(4-hydroxy-1-methylpiperidin-4-yl)methyl]-[1,1′-biphenyl]-4-carbonitrile], the IC50 is 100 to 1000 nM.

For `Cc1cc(CN2C[C@H]3C[C@@H]2CN3)c(C)c(-c2ccc(C#N)c(F)c2)c1` [Example 293, 3'-{[(1R,4R)-2,5-diazabicyclo[2.2.1]heptan-2-yl]methyl}-3-fluoro-2',5'-dimethyl-[1,1'-biphenyl]-4-carbonitrile], the 50% inhibitory concentration (IC50) was 100 to 1000 nM. Under `N#Cc1ccc(-c2cccc(CN3[C@@H]4CC[C@H]3[C@@H](N)C4)c2N2CCCC2)cc1F` (racemic) [Example 270, 3'-{[(1S,2S,4R)-2-amino-7-azabicyclo[2.2.1]heptan-7-yl]methyl}-3-fluoro-2'-(pyrrolidin-1-yl)-[1,1'-biphenyl]-4-carbonitrile] stands 100 to 1000 nM. To `N#Cc1ccc(-c2cccc(CN3C4CNCC3C4)c2C2CC2)cc1F` [Example 274, 2'-cyclopropyl-3'-({3,6-diazabicyclo[3.1.1]heptan-6-yl}methyl)-3-fluoro-[1,1'-biphenyl]-4-carbonitrile] belongs 100 to 1000 nM; to `Cc1cc(CN2CCC3(CCN3C)C2)c(Cl)c(-c2ccc(C#N)c(F)c2)c1` (stereo not drawn) [Compound 240], 25 to 100 nM; to `N#Cc1ccc(-c2cc(C[C@H]3CNCCO3)ccc2N2CCC2)cc1F` (single isomer, unassigned) [Example 54], 100 to 1000 nM. To `C[C@@]1(N)CCN(Cc2cccc(-c3ccc(C#N)c(F)c3)c2-c2ccns2)C1` [Example 242, 3'-{[(3R)-3-amino-3-methylpyrrolidin-1-yl]methyl}-3-fluoro-2'-(1,2-thiazol-5-yl)-[1,1'-biphenyl]-4-carbonitrile] belongs 10 to 25 nM.

These data come from patent publication US20260209214A1, “LSD1 MODULATORS” (RECURSION PHARMACEUTICALS, INC., priority 2022, published 2026).
